Assay results published in PubChem BioAssay (NCI).
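Dose response: 5 concentrations. Exposure: 48 h. Format: 96-well plates. Endpoint: linear interpolation; highest concentration if not reached. TGI denotes the concentration required for complete inhibition of growth.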

Legend:
Assay in all cases: NCI-60 cell line screen, 48 h
SNB-19 CNS = tested on: SNB-19 CNS
OVCAR-5 ovarian = tested on: OVCAR-5 ovarian
OVCAR-4 ovarian = tested on: OVCAR-4 ovarian
SNB-75 CNS = tested on: SNB-75 CNS
NCI-H522 lung = tested on: NCI-H522 lung
EKVX NSCLC = tested on: EKVX NSCLC
SF-539 CNS = tested on: SF-539 CNS
KM20L2 colon = tested on: KM20L2 colon
HOP-92 NSCLC = tested on: HOP-92 NSCLC
NCI-H460 lung = tested on: NCI-H460 lung
M14 melanoma = tested on: M14 melanoma
DLD-1 colon = tested on: DLD-1 colon
SR leukemia = tested on: SR leukemia
A549 NSCLC = tested on: A549 NSCLC
SK-MEL-5 melanoma = tested on: SK-MEL-5 melanoma
HL-60(TB) leukemia = tested on: HL-60(TB) leukemia
MOLT-4 leukemia = tested on: MOLT-4 leukemia
U251 CNS = tested on: U251 CNS
786-0 renal = tested on: 786-0 renal
CAKI-1 renal = tested on: CAKI-1 renal
LXFL 529 NSCLC = tested on: LXFL 529 NSCLC
LOX IMVI melanoma = tested on: LOX IMVI melanoma
OVCAR-8 ovarian = tested on: OVCAR-8 ovarian
RXF 393 renal = tested on: RXF 393 renal
OVCAR-3 ovarian = tested on: OVCAR-3 ovarian
COLO 205 colon = tested on: COLO 205 colon
HCT-116 colon = tested on: HCT-116 colon
SN12C renal = tested on: SN12C renal
RXF-631 renal = tested on: RXF-631 renal
RPMI-8226 leukemia = tested on: RPMI-8226 leukemia
TK-10 renal = tested on: TK-10 renal
HT29 colon = tested on: HT29 colon
HOP-62 NSCLC = tested on: HOP-62 NSCLC
SF-295 CNS = tested on: SF-295 CNS
IGROV1 ovarian = tested on: IGROV1 ovarian
NCI-H226 lung = tested on: NCI-H226 lung
KM12 colon = tested on: KM12 colon
SF-268 CNS = tested on: SF-268 CNS
SK-OV-3 ovarian = tested on: SK-OV-3 ovarian
SK-MEL-28 melanoma = tested on: SK-MEL-28 melanoma
M19-MEL melanoma = tested on: M19-MEL melanoma
UACC-62 melanoma = tested on: UACC-62 melanoma
UACC-257 melanoma = tested on: UACC-257 melanoma
HCC-2998 colon = tested on: HCC-2998 colon
NCI-H23 lung = tested on: NCI-H23 lung
HCT-15 colon = tested on: HCT-15 colon
SW-620 colon = tested on: SW-620 colon
A498 renal = tested on: A498 renal
MALME-3M melanoma = tested on: MALME-3M melanoma
UO-31 renal = tested on: UO-31 renal
ACHN renal = tested on: ACHN renal
SK-MEL-2 melanoma = tested on: SK-MEL-2 melanoma
K-562 leukemia = tested on: K-562 leukemia
DMS 114 small cell lung = tested on: DMS 114 small cell lung
SNB-78 CNS = tested on: SNB-78 CNS
HS 578T breast = tested on: HS 578T breast
DMS 273 small cell lung = tested on: DMS 273 small cell lung
DU-145 prostate = tested on: DU-145 prostate
T-47D breast = tested on: T-47D breast
MDA-MB-231 breast = tested on: MDA-MB-231 breast
BT-549 breast = tested on: BT-549 breast
PC-3 prostate = tested on: PC-3 prostate
HOP-18 NSCLC = tested on: HOP-18 NSCLC
MDA-N = tested on: MDA-N
MDA-MB-435 = tested on: MDA-MB-435
NCI/ADR-RES ovarian = tested on: NCI/ADR-RES ovarian
MCF7 breast = tested on: MCF7 breast
XF 498 CNS = tested on: XF 498 CNS
CCRF-CEM leukemia = tested on: CCRF-CEM leukemia

CC(C)C(=S)N(C)O
TGI (SNB-19 CNS): > 100 µM
TGI (OVCAR-5 ovarian): > 100 µM
TGI (OVCAR-4 ovarian): > 100 µM
TGI (SNB-75 CNS): > 100 µM
TGI (NCI-H522 lung): > 27.2 µM
TGI (EKVX NSCLC): > 100 µM
TGI (SF-539 CNS): 89.7 µM
TGI (KM20L2 colon): > 100 µM
TGI (HOP-92 NSCLC): > 100 µM
TGI (NCI-H460 lung): > 75.5 µM
TGI (M14 melanoma): > 100 µM
TGI (DLD-1 colon): > 100 µM
TGI (SR leukemia): > 100 µM
TGI (A549 NSCLC): > 100 µM
TGI (SK-MEL-5 melanoma): > 77.7 µM
TGI (HL-60(TB) leukemia): > 24.2 µM
TGI (MOLT-4 leukemia): > 24.7 µM
TGI (U251 CNS): > 100 µM
TGI (786-0 renal): > 100 µM
TGI (CAKI-1 renal): > 100 µM
TGI (LXFL 529 NSCLC): > 100 µM
TGI (LOX IMVI melanoma): 62.5 µM
TGI (OVCAR-8 ovarian): > 100 µM
TGI (RXF 393 renal): > 100 µM
TGI (OVCAR-3 ovarian): > 100 µM
TGI (COLO 205 colon): > 100 µM
TGI (HCT-116 colon): 19.9 µM
TGI (SN12C renal): > 100 µM
TGI (RXF-631 renal): > 100 µM
TGI (RPMI-8226 leukemia): > 52.6 µM
TGI (TK-10 renal): > 91.4 µM
TGI (HT29 colon): 13.2 µM
TGI (HOP-62 NSCLC): > 93.3 µM
TGI (SF-295 CNS): > 100 µM
TGI (IGROV1 ovarian): > 100 µM
TGI (NCI-H226 lung): > 100 µM
TGI (KM12 colon): > 72.9 µM
TGI (SF-268 CNS): > 100 µM
TGI (SK-OV-3 ovarian): > 100 µM
TGI (SK-MEL-28 melanoma): > 100 µM
TGI (M19-MEL melanoma): > 57.4 µM
TGI (UACC-62 melanoma): > 61.9 µM
TGI (UACC-257 melanoma): > 100 µM
TGI (HCC-2998 colon): > 100 µM
TGI (NCI-H23 lung): > 100 µM
TGI (HCT-15 colon): > 100 µM
TGI (SW-620 colon): > 61.5 µM
TGI (A498 renal): 63.1 µM
TGI (MALME-3M melanoma): > 100 µM
TGI (UO-31 renal): 50.2 µM
TGI (ACHN renal): > 100 µM
TGI (SK-MEL-2 melanoma): 72.3 µM
TGI (K-562 leukemia): > 100 µM
TGI (DMS 114 small cell lung): 19.3 µM
TGI (SNB-78 CNS): > 100 µM

CCOc1ccc(N=Cc2ccnc3ccccc23)cc1
TGI (SNB-19 CNS): > 100 µM
TGI (OVCAR-5 ovarian): > 100 µM
TGI (HS 578T breast): > 100 µM
TGI (OVCAR-4 ovarian): > 100 µM
TGI (DMS 273 small cell lung): > 87.5 µM
TGI (SNB-75 CNS): > 92.2 µM
TGI (NCI-H522 lung): > 94.8 µM
TGI (EKVX NSCLC): > 100 µM
TGI (DU-145 prostate): > 100 µM
TGI (T-47D breast): > 100 µM
TGI (SF-539 CNS): 85.9 µM
TGI (KM20L2 colon): > 94.8 µM
TGI (HOP-92 NSCLC): > 100 µM
TGI (NCI-H460 lung): > 100 µM
TGI (M14 melanoma): 80 µM
TGI (DLD-1 colon): > 100 µM
TGI (SR leukemia): 6.76 µM
TGI (A549 NSCLC): > 100 µM
TGI (SK-MEL-5 melanoma): > 82.6 µM
TGI (HL-60(TB) leukemia): 17 µM
TGI (MOLT-4 leukemia): > 100 µM
TGI (U251 CNS): > 68.1 µM
TGI (786-0 renal): > 100 µM
TGI (CAKI-1 renal): > 100 µM
TGI (LXFL 529 NSCLC): 47.4 µM
TGI (LOX IMVI melanoma): > 80.3 µM
TGI (OVCAR-8 ovarian): > 83.7 µM
TGI (RXF 393 renal): > 100 µM
TGI (OVCAR-3 ovarian): 73.1 µM
TGI (COLO 205 colon): > 100 µM
TGI (HCT-116 colon): 54.3 µM
TGI (MDA-MB-231 breast): > 75.9 µM
TGI (SN12C renal): > 91.5 µM
TGI (RPMI-8226 leukemia): 35.1 µM
TGI (TK-10 renal): > 100 µM
TGI (HT29 colon): > 100 µM
TGI (HOP-62 NSCLC): > 94 µM
TGI (SF-295 CNS): > 100 µM
TGI (IGROV1 ovarian): > 100 µM
TGI (NCI-H226 lung): > 100 µM
TGI (BT-549 breast): > 81.1 µM
TGI (KM12 colon): > 89.9 µM
TGI (PC-3 prostate): > 100 µM
TGI (SF-268 CNS): > 84.2 µM
TGI (SK-OV-3 ovarian): > 83.3 µM
TGI (HOP-18 NSCLC): > 100 µM
TGI (SK-MEL-28 melanoma): > 100 µM
TGI (M19-MEL melanoma): > 100 µM
TGI (UACC-62 melanoma): > 100 µM
TGI (MDA-N): > 100 µM
TGI (UACC-257 melanoma): > 100 µM
TGI (MDA-MB-435): > 100 µM
TGI (HCC-2998 colon): 81.4 µM
TGI (NCI-H23 lung): > 98 µM
TGI (HCT-15 colon): > 87.9 µM
TGI (NCI/ADR-RES ovarian): > 100 µM
TGI (SW-620 colon): > 100 µM
TGI (A498 renal): > 100 µM
TGI (MALME-3M melanoma): > 97.7 µM
TGI (MCF7 breast): > 100 µM
TGI (XF 498 CNS): > 100 µM
TGI (UO-31 renal): > 100 µM
TGI (ACHN renal): > 100 µM
TGI (SK-MEL-2 melanoma): > 85.3 µM
TGI (K-562 leukemia): 46.9 µM
TGI (DMS 114 small cell lung): > 61.8 µM
TGI (SNB-78 CNS): > 95.7 µM
TGI (CCRF-CEM leukemia): 36.5 µM
